TGI data for ten compounds are collected here from PubChem BioAssay (NCI).

Among the test systems are SNB-75 CNS; SK-MEL-2 melanoma; DU-145 prostate; SNB-19 CNS; M14 melanoma; OVCAR-3 ovarian; SK-OV-3 ovarian; NCI-H226 lung; SK-MEL-28 melanoma; IGROV1 ovarian.
Holding throughout (assay): NCI tumour cell line growth inhibition, 48 h

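Grown in 96-well plates, cells were treated for 48 hours with each compound at five concentrations. Insufficient inhibition: endpoint recorded as highest concentration tested. TGI denotes the concentration required for complete inhibition of growth.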 A value given as a limit tells only on which side of the number the result lay.

For the compound `O=C1C(NCCc2ccc(O)c(O)c2)=CC(=O)c2ncccc21`, the TGI in the experiment with SNB-75 CNS amounted to 29.4 µM; in the experiment on SK-MEL-2 melanoma, 21.5 µM; with DU-145 prostate, 24 µM; in the experiment on SNB-19 CNS, 45.8 µM; in the experiment with M14 melanoma, 40.5 µM; in the experiment on OVCAR-3 ovarian, 7.77 µM. The TGI with SK-OV-3 ovarian worked out at 38.5 µM; in the experiment with NCI-H226 lung, 30.5 µM; with SK-MEL-28 melanoma, 28.8 µM; with IGROV1 ovarian, 27.2 µM.
On to `CC(C(=O)ON1C(=O)CCC1=O)c1ccc(C(=O)c2ccccc2)s1` (stereo not given), for which the TGI in the experiment on SNB-75 CNS, in the experiment with SK-MEL-2 melanoma, in the experiment with DU-145 prostate, in the experiment with SNB-19 CNS, with M14 melanoma and in the experiment on OVCAR-3 ovarian was over 100 µM each time. Besides, the TGI in the experiment on SK-OV-3 ovarian, in the experiment with NCI-H226 lung, with SK-MEL-28 melanoma and in the experiment with IGROV1 ovarian was over 100 µM in each case.
For `[Se]=P(c1ccccc1)(c1ccccc1)c1ccc(C(c2ccccc2)=P(c2ccccc2)(c2ccccc2)c2ccccc2)cc1`, the TGI in the experiment with SNB-75 CNS was 3.49 µM; in the experiment on SK-MEL-2 melanoma it was 6.21 µM; in the experiment with DU-145 prostate, 14.5 µM; in the experiment with SNB-19 CNS, 16 µM; with M14 melanoma, 24.5 µM; in the experiment with OVCAR-3 ovarian it was 4.22 µM. Moreover, the TGI in the experiment on SK-OV-3 ovarian is 12.1 µM; with NCI-H226 lung it was 11.5 µM; in the experiment with SK-MEL-28 melanoma it was 20.2 µM; in the experiment on IGROV1 ovarian, 11.5 µM.
Regarding `CCCCc1c(C(=O)OC(C)(C)C)cc(C#Cc2cc(C(=O)OC(C)(C)C)c(CCCC)c(C(=O)OC(C)(C)C)c2)cc1C(=O)OC(C)(C)C`, the TGI in the experiment with SNB-75 CNS, in the experiment on SK-MEL-2 melanoma, in the experiment with DU-145 prostate, with SNB-19 CNS, in the experiment with M14 melanoma and in the experiment on OVCAR-3 ovarian was over 100 µM each time. The TGI with SK-OV-3 ovarian, with NCI-H226 lung, in the experiment with SK-MEL-28 melanoma and in the experiment on IGROV1 ovarian was over 100 µM in each case.
On to `Cc1ccc(S(=O)(=O)/N=C(\NN)Nc2ccc(Cl)cc2)cc1`, for which the TGI in the experiment with SNB-75 CNS, with SK-MEL-2 melanoma, in the experiment with DU-145 prostate, in the experiment with SNB-19 CNS, in the experiment on M14 melanoma and with OVCAR-3 ovarian was over 100 µM in each case. Besides, the TGI in the experiment on SK-OV-3 ovarian, in the experiment with NCI-H226 lung, in the experiment on SK-MEL-28 melanoma and in the experiment with IGROV1 ovarian was over 100 µM each time.
Take `O=C1C(F)=CC(COC(c2ccccc2)(c2ccccc2)c2ccccc2)OC1n1cc(F)c(=O)[nH]c1=O` (stereo not given): the TGI was 10.9 µM in the experiment with SNB-75 CNS; 7.49 µM in the experiment with SK-MEL-2 melanoma; over 34.2 µM in the experiment with DU-145 prostate; 12.8 µM in the experiment with SNB-19 CNS; 5.03 µM with M14 melanoma; 3.21 µM in the experiment with OVCAR-3 ovarian. In addition, the TGI amounted to 14.4 µM in the experiment on SK-OV-3 ovarian, 5.51 µM with NCI-H226 lung, 3.5 µM in the experiment with SK-MEL-28 melanoma and 6.79 µM in the experiment with IGROV1 ovarian.
Consider `O=C1/C(=C\c2cccc(Oc3ccccc3)c2)S(=O)(=O)C(c2ccccc2)N1c1ccccc1Cl` (stereo not given), for which the TGI in the experiment with SNB-75 CNS is 74.5 µM; with SK-MEL-2 melanoma, over 100 µM; with DU-145 prostate it was over 100 µM; in the experiment with SNB-19 CNS, 64 µM; with M14 melanoma, 89.1 µM; with OVCAR-3 ovarian, 64.3 µM. Besides, the TGI in the experiment on SK-OV-3 ovarian, in the experiment on NCI-H226 lung, in the experiment on SK-MEL-28 melanoma and in the experiment on IGROV1 ovarian was over 100 µM in each case.
Consider `Cn1c(=O)c2c(nc3n(Cc4ccccc4)c(=O)c(NCCBr)cn23)n(C)c1=O`, for which the TGI was 49.8 µM with SNB-75 CNS; 74.2 µM with SK-MEL-2 melanoma; over 100 µM in the experiment with DU-145 prostate; over 100 µM in the experiment with SNB-19 CNS; over 100 µM with M14 melanoma; 66.7 µM in the experiment on OVCAR-3 ovarian. In addition, the TGI with SK-OV-3 ovarian is 51.9 µM; in the experiment on NCI-H226 lung, 63.1 µM; in the experiment on SK-MEL-28 melanoma it was over 100 µM; in the experiment on IGROV1 ovarian, over 100 µM.
Regarding `COc1ccc(O[C@H](COCc2ccccc2)C[C@@H]2COC(C)(C)O2)cc1`, the TGI in the experiment with SNB-75 CNS, in the experiment on SK-MEL-2 melanoma, in the experiment on DU-145 prostate, in the experiment on SNB-19 CNS, in the experiment with M14 melanoma and with OVCAR-3 ovarian was over 100 µM each time. In addition, the TGI in the experiment with SK-OV-3 ovarian, with NCI-H226 lung, in the experiment with SK-MEL-28 melanoma and with IGROV1 ovarian was over 100 µM each time.
For the compound `Cc1ccc(OCC2OC(n3cnc4nc(Cl)nc(Cl)c43)CC2Oc2ccc(C)cc2)cc1` (stereo not given), the TGI was found to be 28.5 µM with SNB-75 CNS; 18.1 µM in the experiment with SK-MEL-2 melanoma; 27.2 µM with DU-145 prostate; 30.1 µM with SNB-19 CNS; 20.5 µM with M14 melanoma; 18.9 µM with OVCAR-3 ovarian. The TGI was over 89.5 µM in the experiment on SK-OV-3 ovarian, 36.3 µM in the experiment with NCI-H226 lung, 14.1 µM in the experiment on SK-MEL-28 melanoma and 19.7 µM in the experiment with IGROV1 ovarian.
